The values below come from ChEMBL document CHEMBL1201862, “PubChem BioAssay data set” (2004).

Structures are written as SMILES.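 Five compound concentrations were applied to cells in 96-well plates for 48 hours; endpoints were derived by simple linear interpolation of the resulting dose-response curve. Abbreviation: GI50, concentration required for 50% inhibition of growth.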 Calls of active or inactive are those of the source. Rule as the data show it: active = GI50 up to about 1.1 µM and inactive = higher. A value given as a limit tells only on which side of the number the result lay.

Test systems include MDA-MB-231; UACC-62; CAKI-1; SW-620; NCI/ADR-RES; K562; MOLT-4; SK-OV-3; MDA-MB-435; RXF 393; BT-549; RPMI-8226; A549; EKVX; 786-0; ACHN; Malme-3M; HT-29; HCC 2998; SF-539.
Assay in all cases: NCI-60 cell line screen, 48 h

Turning to `c1ccc(NCCSc2nc3ccccc3s2)cc1`, the GI50 with MDA-MB-231 is 29.4 µM (inactive); in the test with UACC-62, 66.5 µM (inactive); in the test with CAKI-1 it was 93.1 µM (inactive); with SW-620, 58.3 µM (inactive); in the test on NCI/ADR-RES, 35.9 µM (inactive); in the test on K562, 34 µM (inactive). In addition, the GI50 with MOLT-4 is 24.9 µM (inactive); in the test on SK-OV-3, > 100 µM (inactive); in the test on MDA-MB-435, 43.3 µM (inactive); with RXF 393, 55.7 µM (inactive); in the test on BT-549 it was 34.8 µM (inactive); in the test with RPMI-8226, 26.5 µM (inactive). The GI50 with A549 was 37.7 µM (inactive); in the test on EKVX, 29.5 µM (inactive); in the test on 786-0, 37.6 µM (inactive); with ACHN, 43.8 µM (inactive); in the test with Malme-3M, 44.9 µM (inactive); in the test with HT-29, 30.5 µM (inactive).

With `CN(C(=O)Cc1cccc(N=C=S)c1)[C@H]1CCCC[C@@H]1N1CCCC1`, the GI50 in the test with MDA-MB-231 was 16.9 µM (inactive); in the test on UACC-62, 15.7 µM (inactive); in the test with CAKI-1, 15.4 µM (inactive); with SW-620, 11.6 µM (inactive); in the test on NCI/ADR-RES, 24.8 µM (inactive); in the test on K562, 7.59 µM (inactive). Besides, the GI50 in the test on MOLT-4 is 5.24 µM (inactive); in the test on SK-OV-3, 25.5 µM (inactive); in the test with MDA-MB-435, 13.9 µM (inactive); in the test with RXF 393, 12.9 µM (inactive); with BT-549, 11 µM (inactive); in the test on RPMI-8226 it was 10.9 µM (inactive). Also, the GI50 is 16.4 µM (inactive) in the test with A549; 18.1 µM (inactive) with EKVX; 15.1 µM (inactive) in the test on 786-0; 14.1 µM (inactive) with ACHN; 22.4 µM (inactive) with Malme-3M; 11.5 µM (inactive) with HT-29.

Consider `C=C1CC(Cn2cc(Br)c(=O)[nH]c2=O)(c2ccc(Br)cc2)OC1=O` (configuration not stated), for which the GI50 in the test with MDA-MB-231 is 4.47 µM (inactive); in the test with UACC-62 it was 2.4 µM (inactive); in the test on CAKI-1, 2.38 µM (inactive); in the test with SW-620 it was 1.49 µM (inactive); in the test on HCC 2998 it was 3.48 µM (inactive); with NCI/ADR-RES, 2.59 µM (inactive). For the same molecule, the GI50 is 0.644 µM (active) with K562; 1.79 µM (inactive) in the test with MOLT-4; 12.2 µM (inactive) in the test with SK-OV-3; 6.44 µM (inactive) with SF-539; 2.88 µM (inactive) in the test with MDA-MB-435; 2.37 µM (inactive) with BT-549. The GI50 in the test with RPMI-8226 is 0.331 µM (active); with A549, 14.8 µM (inactive); in the test on EKVX, 17.9 µM (inactive); in the test with 786-0 it was 1.63 µM (inactive); in the test on ACHN, 3.66 µM (inactive); with Malme-3M, 1.87 µM (inactive). For the same molecule, the GI50 in the test with HT-29 was 2.3 µM (inactive).

For the molecule `O=C1/C(=C\Oc2ccc(F)cc2)N2CCC1CC2`, the GI50 with MDA-MB-231 was 80.5 µM (inactive); in the test on UACC-62, 25.9 µM (inactive); in the test on CAKI-1 it was 84.9 µM (inactive); in the test with NCI/ADR-RES, 46.2 µM (inactive); in the test with K562, 32.7 µM (inactive); in the test with MOLT-4, 34.1 µM (inactive). Also, the GI50 with SK-OV-3 was > 100 µM (inactive); with SF-539, > 100 µM (inactive); with MDA-MB-435, 40.5 µM (inactive); in the test on RXF 393 it was 25.1 µM (inactive); with BT-549, 55 µM (inactive); with RPMI-8226, 52.1 µM (inactive). The GI50 with A549 is > 100 µM (inactive); with EKVX it was 55.5 µM (inactive); in the test with 786-0 it was > 100 µM (inactive); in the test with ACHN it was 76.2 µM (inactive); in the test on Malme-3M, 33.3 µM (inactive); in the test with HT-29, 60.1 µM (inactive).

Consider `COc1cc(C(=O)N(C(=S)OCc2ccccn2)c2ccccc2)cc(OC)c1OC`, for which the GI50 is 78.5 µM (inactive) in the test on MDA-MB-231; 56.4 µM (inactive) in the test with UACC-62; 44.7 µM (inactive) in the test with CAKI-1; 59.7 µM (inactive) with SW-620; 39.4 µM (inactive) in the test on NCI/ADR-RES; 41.1 µM (inactive) with K562. For the same molecule, the GI50 with MOLT-4 was 25.6 µM (inactive); with SK-OV-3 it was > 100 µM (inactive); in the test on SF-539, 26.5 µM (inactive); in the test with MDA-MB-435, > 100 µM (inactive); with RXF 393, 42.2 µM (inactive); in the test on BT-549, 41 µM (inactive). For the same molecule, the GI50 in the test on RPMI-8226 is 26.8 µM (inactive); with EKVX, 12.9 µM (inactive); in the test with 786-0, 77.8 µM (inactive); in the test with ACHN it was 42.3 µM (inactive); with Malme-3M it was 8.22 µM (inactive); in the test on HT-29, 29.9 µM (inactive).

With `COC(=O)Cc1c(/C=C/C(C)(C)n2cnc(CCN3C(=O)CCC3=O)c2)[nH]c2ccccc12`, the GI50 was > 100 µM (inactive) with MDA-MB-231; 14.2 µM (inactive) with UACC-62; > 100 µM (inactive) in the test with CAKI-1; > 100 µM (inactive) with SW-620; > 100 µM (inactive) with NCI/ADR-RES; > 100 µM (inactive) in the test on K562. Moreover, the GI50 was 57.3 µM (inactive) in the test on MOLT-4; > 100 µM (inactive) with SK-OV-3; > 100 µM (inactive) in the test with SF-539; > 100 µM (inactive) in the test with MDA-MB-435; 36.3 µM (inactive) in the test with RXF 393; > 100 µM (inactive) with BT-549. For the same molecule, the GI50 in the test on A549 was 94.6 µM (inactive); in the test on EKVX, 13.7 µM (inactive); in the test with 786-0, > 100 µM (inactive); in the test with ACHN, 95.5 µM (inactive); in the test on Malme-3M, 37 µM (inactive); with HT-29 it was 35.4 µM (inactive).

For the molecule `CC(=O)c1ccc2c3c1O[C@H]1c4[nH]c5ccccc5c4C[C@@]4(O)[C@@H](C2)N(CC2CC2)CC[C@]314`, the GI50 in the test on MDA-MB-231 is 12.8 µM (inactive); with UACC-62, 16.5 µM (inactive); in the test on CAKI-1, 20 µM (inactive); in the test on SW-620, 0.179 µM (active); in the test on NCI/ADR-RES, 8.67 µM (inactive); with K562 it was 16.8 µM (inactive). The GI50 in the test on MOLT-4 is 17.1 µM (inactive); in the test on SK-OV-3, 20.1 µM (inactive); in the test on SF-539 it was 13.6 µM (inactive); in the test with MDA-MB-435, 18.6 µM (inactive); in the test with RXF 393, 13.8 µM (inactive); with BT-549 it was 14.5 µM (inactive). Besides, the GI50 was 18.3 µM (inactive) in the test on RPMI-8226; 1.15 µM (inactive) in the test with A549; 20.2 µM (inactive) in the test with EKVX; 15 µM (inactive) in the test on 786-0; 17.2 µM (inactive) with ACHN; 21.3 µM (inactive) in the test with Malme-3M. For the same molecule, the GI50 in the test on HT-29 is 4.13 µM (inactive).

For the molecule `Cc1ccc(S(=O)(=O)NC(CCC(=O)NNc2ccccc2)C(=O)NNc2ccccc2)cc1` (configuration not stated), the GI50 was > 100 µM (inactive) with MDA-MB-231; 2.87 µM (inactive) in the test on UACC-62; > 100 µM (inactive) with CAKI-1; 6.65 µM (inactive) with SW-620; > 100 µM (inactive) with NCI/ADR-RES; 85.9 µM (inactive) in the test on K562. For the same molecule, the GI50 was 3.85 µM (inactive) in the test on MOLT-4; > 100 µM (inactive) in the test with SK-OV-3; 17.5 µM (inactive) with SF-539; > 100 µM (inactive) with MDA-MB-435; > 100 µM (inactive) in the test on RXF 393; > 100 µM (inactive) in the test with BT-549. In addition, the GI50 is 5.58 µM (inactive) in the test with RPMI-8226; 15.6 µM (inactive) in the test on A549; > 100 µM (inactive) with EKVX; > 100 µM (inactive) with 786-0; 2.13 µM (inactive) in the test with ACHN; 31.7 µM (inactive) in the test with Malme-3M. Further, the GI50 in the test with HT-29 is 13.2 µM (inactive).
